{"source": "BindingDB's records for patent US12065399", "about": "(Hoffmann-La Roche, 2024)", "target": "Metabotropic glutamate receptor 4 (Homo sapiens, UniProt Q14833)", "sequence (Q14833 whole entry)": "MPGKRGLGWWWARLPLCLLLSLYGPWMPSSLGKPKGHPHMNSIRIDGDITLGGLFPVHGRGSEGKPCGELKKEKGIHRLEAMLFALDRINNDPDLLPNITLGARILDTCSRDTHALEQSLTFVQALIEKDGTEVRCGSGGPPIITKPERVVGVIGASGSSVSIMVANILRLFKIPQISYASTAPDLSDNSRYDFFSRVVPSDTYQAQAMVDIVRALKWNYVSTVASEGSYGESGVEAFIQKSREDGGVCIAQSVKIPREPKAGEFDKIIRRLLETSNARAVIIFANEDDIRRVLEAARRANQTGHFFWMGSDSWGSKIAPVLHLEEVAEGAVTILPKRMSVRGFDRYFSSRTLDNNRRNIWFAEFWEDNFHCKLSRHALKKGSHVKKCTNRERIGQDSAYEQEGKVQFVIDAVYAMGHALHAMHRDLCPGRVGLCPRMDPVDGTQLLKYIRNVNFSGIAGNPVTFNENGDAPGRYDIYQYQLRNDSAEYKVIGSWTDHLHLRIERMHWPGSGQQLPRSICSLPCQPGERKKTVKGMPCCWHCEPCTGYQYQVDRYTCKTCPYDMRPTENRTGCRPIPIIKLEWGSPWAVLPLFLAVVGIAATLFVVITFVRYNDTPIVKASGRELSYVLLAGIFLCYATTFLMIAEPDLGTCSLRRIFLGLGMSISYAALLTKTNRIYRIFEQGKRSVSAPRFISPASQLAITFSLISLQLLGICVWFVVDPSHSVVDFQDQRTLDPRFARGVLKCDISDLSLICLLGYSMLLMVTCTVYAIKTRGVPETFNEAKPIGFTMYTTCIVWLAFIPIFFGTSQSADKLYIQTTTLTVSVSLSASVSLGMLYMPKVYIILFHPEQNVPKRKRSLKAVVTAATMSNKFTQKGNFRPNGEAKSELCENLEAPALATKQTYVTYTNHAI", "assay": "Intracellular Ca2+ Mobilization Assay (FLIPR)", "method": "A monoclonal HEK-293 cell line stably transfected with a cDNA encoding for the human mGlu4 receptor was generated. Cells were cultured according to standard protocols (Freshney, 2000) in Dulbecco's Modified Eagle Medium with high glucose supplemented with 1 mM glutamine, 10% (vol/vol) heat-inactivated bovine calf serum, penicillin/streptomycin, 50 μg/ml hygromycin and 15 μg/ml blasticidin (all cell culture reagents and antibiotics from Invitrogen, Basel, Switzerland).About 24 hrs before an experiment, 5×10^4 cells/well were seeded in poly-D-lysine coated, black/clear-bottomed 96-well plates. The cells were loaded with 2.5 μM Fluo-4AM in loading buffer (1×HBSS, 20 mM HEPES) for 1 hr at 37° C. and washed five times with loading buffer. The cells were transferred into a Functional Drug Screening System 7000 (Hamamatsu, Paris, France), and 11 half logarithmic serial dilutions of test compound at 37° C. were added and the cells were incubated for 10-30 min. with on-line recording of fluorescence. […]"}
{"smiles": "CC(C)(C)c1cnn(-c2cc(F)c(NS(=O)(=O)c3cccc(Cl)c3Cl)c(F)c2)c1", "note": "[US12065399, Example 59]", "values": [{"measurement": "EC50", "result": 9.28, "unit": "µM"}]}
